Assays:
Assay type in all cases: functional
[1] = tested on: T47D; test: Cytotoxicity against human T47D cells assessed as cell growth at 1 uM after 48 hrs by sulforhodamine B assay relative to control; conditions: read-out: Activity
[2] = tested on: U-251; test: Cytotoxicity against human U251 cells assessed as cell growth at 1 uM after 48 hrs by sulforhodamine B assay relative to control; conditions: U-251, 48 h, read-out: Activity
[3] = tested on: DU-145; test: Cytotoxicity against human DU145 cells assessed as cell growth at 0.01 uM after 48 hrs by sulforhodamine B assay relative to control; conditions: DU-145, 48 h, read-out: Activity
[4] = tested on: A549; test: Cytotoxicity against human A549/ATCC cells assessed as cell growth at 0.1 uM after 48 hrs by sulforhodamine B assay relative to control; conditions: A549, 48 h, read-out: Activity
[5] = tested on: MCF7; test: Cytotoxicity against human MCF7 cells assessed as cell growth at 100 uM after 48 hrs by sulforhodamine B assay relative to control; conditions: MCF7, 48 h, read-out: Activity
[6] = tested on: NCI-H23; test: Cytotoxicity against human NCI-H23 cells assessed as growth inhibition after 48 hrs by sulforhodamine B assay; conditions: NCI-H23, 48 h; for CC50: read-out: LC50 (the source's name)
[7] = tested on: SNB-19; test: Cytotoxicity against human SNB19 cells assessed as cell growth at 1 uM after 48 hrs by sulforhodamine B assay relative to control; conditions: SNB-19, 48 h, read-out: Activity
[8] = tested on: RPMI-8226; test: Cytotoxicity against human RPMI8226 cells assessed as growth inhibition after 48 hrs by sulforhodamine B assay; conditions: RPMI-8226, 48 h
[9] = tested on: PC-3; test: Cytotoxicity against human PC3 cells assessed as growth inhibition after 48 hrs by sulforhodamine B assay; conditions: PC-3, 48 h
[10] = tested on: OVCAR-4; test: Cytotoxicity against human OVCAR4 cells assessed as cell growth at 10 uM after 48 hrs by sulforhodamine B assay relative to control; conditions: OVCAR-4, 48 h, read-out: Activity
[11] = tested on: NCI-H522; test: Cytotoxicity against human NCI-H522 cells assessed as cell growth at 0.01 uM after 48 hrs by sulforhodamine B assay relative to control; conditions: NCI-H522, 48 h, read-out: Activity
[12] = tested on: HCC 2998; test: Cytotoxicity against human HCC2998 cells assessed as cell growth at 0.01 uM after 48 hrs by sulforhodamine B assay relative to control; conditions: HCC 2998, 48 h, read-out: Activity
[13] = tested on: HCT-15; test: Cytotoxicity against human HCT15 cells assessed as cell growth at 0.01 uM after 48 hrs by sulforhodamine B assay relative to control; conditions: HCT-15, 48 h, read-out: Activity
[14] = tested on: Malme-3M; test: Cytotoxicity against human MALME-3M cells assessed as cell growth at 0.1 uM after 48 hrs by sulforhodamine B assay relative to control; conditions: read-out: Activity
[15] = tested on: ACHN; test: Cytotoxicity against human ACHN cells assessed as cell growth at 1 uM after 48 hrs by sulforhodamine B assay relative to control; conditions: read-out: Activity
[16] = tested on: HOP-62; test: Cytotoxicity against human HOP62 cells assessed as cell growth at 10 uM after 48 hrs by sulforhodamine B assay relative to control; conditions: HOP-62, 48 h, read-out: Activity
[17] = tested on: U-251; test: Cytotoxicity against human U251 cells assessed as cell growth at 10 uM after 48 hrs by sulforhodamine B assay relative to control; conditions: U-251, 48 h, read-out: Activity
[18] = tested on: HCT-116; test: Cytotoxicity against human HCT116 cells assessed as cell growth at 100 uM after 48 hrs by sulforhodamine B assay relative to control; conditions: HCT-116, 48 h, read-out: Activity
[19] = tested on: K562; test: Cytotoxicity against human K562 cells assessed as cell growth at 0.01 uM after 48 hrs by sulforhodamine B assay relative to control; conditions: K562, 48 h, read-out: Activity
[20] = tested on: SK-OV-3; test: Cytotoxicity against human SKOV3 cells assessed as cell growth at 10 uM after 48 hrs by sulforhodamine B assay relative to control; conditions: SK-OV-3, 48 h, read-out: Activity
[21] = tested on: SW-620; test: Cytotoxicity against human SW620 cells assessed as growth inhibition after 48 hrs by sulforhodamine B assay; conditions: SW-620, 48 h
[22] = tested on: COLO 205; test: Cytotoxicity against human COLO205 cells assessed as cell growth at 0.01 uM after 48 hrs by sulforhodamine B assay relative to control; conditions: COLO 205, 48 h, read-out: Activity
[23] = tested on: SR; test: Cytotoxicity against human SR cells assessed as cell growth at 100 uM after 48 hrs by sulforhodamine B assay relative to control; conditions: read-out: Activity
[24] = tested on: A498; test: Cytotoxicity against human A498 cells assessed as cell growth at 0.1 uM after 48 hrs by sulforhodamine B assay relative to control; conditions: A498, 48 h, read-out: Activity
[25] = tested on: SNB-19; test: Cytotoxicity against human SNB19 cells assessed as cell growth at 0.01 uM after 48 hrs by sulforhodamine B assay relative to control; conditions: SNB-19, 48 h, read-out: Activity
[26] = tested on: SN12C; test: Cytotoxicity against human SN12C cells assessed as cell growth at 100 uM after 48 hrs by sulforhodamine B assay relative to control; conditions: read-out: Activity
[27] = tested on: NCI-H322M; test: Cytotoxicity against human NCI-H322M cells assessed as growth inhibition after 48 hrs by sulforhodamine B assay; conditions: for CC50: read-out: LC50 (the source's name)
[28] = tested on: SN12C; test: Cytotoxicity against human SN12C cells assessed as growth inhibition after 48 hrs by sulforhodamine B assay
[29] = tested on: OVCAR-3; test: Cytotoxicity against human OVCAR3 cells assessed as cell growth at 1 uM after 48 hrs by sulforhodamine B assay relative to control; conditions: OVCAR-3, 48 h, read-out: Activity
[30] = tested on: MDA-MB-231; test: Cytotoxicity against human MDA-MB-231 cells assessed as cell growth at 100 uM after 48 hrs by sulforhodamine B assay relative to control; conditions: MDA-MB-231, 48 h, read-out: Activity
[31] = tested on: A549; test: Cytotoxicity against human A549/ATCC cells assessed as cell growth at 0.01 uM after 48 hrs by sulforhodamine B assay relative to control; conditions: A549, 48 h, read-out: Activity
[32] = tested on: IGROV-1; test: Cytotoxicity against human IGROV1 cells assessed as cell growth at 0.01 uM after 48 hrs by sulforhodamine B assay relative to control; conditions: IGROV-1, 48 h, read-out: Activity
[33] = tested on: NCI/ADR-RES; test: Cytotoxicity against human NCI/ADR-RES cells assessed as growth inhibition after 48 hrs by sulforhodamine B assay
[34] = tested on: OVCAR-3; test: Cytotoxicity against human OVCAR3 cells assessed as cell growth at 0.1 uM after 48 hrs by sulforhodamine B assay relative to control; conditions: OVCAR-3, 48 h, read-out: Activity
[35] = tested on: Hs-578T; test: Cytotoxicity against human Hs 578T cells assessed as cell growth at 10 uM after 48 hrs by sulforhodamine B assay relative to control; conditions: read-out: Activity
[36] = tested on: UACC-62; test: Cytotoxicity against human UACC62 cells assessed as growth inhibition after 48 hrs by sulforhodamine B assay; conditions: UACC-62, 48 h

Structure (SMILES): COc1cc(C(=O)/C=C/c2cc(-c3ccc4c(c3)OCO4)n[nH]2)cc(OC)c1OC
- growth at 1 µM [1]: 68%
- growth at 1 µM [2]: 63%
- growth at 0.01 µM [3]: 102%
- growth at 0.1 µM [4]: 98%
- growth at 100 µM [5]: -69%
- GI50 [6]: 2.9 µM
- TGI [6]: 10.3 µM
- CC50 [6]: 40.3 µM
- growth at 1 µM [7]: 75%
- GI50 [8]: 0.56 µM
- LC50 [8]: > 100 µM
- TGI [8]: 2.53 µM
- GI50 [9]: 1.51 µM
- LC50 [9]: 12.4 µM
- TGI [9]: 4.02 µM
- growth at 10 µM [10]: -28%
- growth at 0.01 µM [11]: 97%
- growth at 0.01 µM [12]: 99%
- growth at 0.01 µM [13]: 98%
- growth at 0.1 µM [14]: 83%
- growth at 1 µM [15]: 99%
- growth at 10 µM [16]: -24%
- growth at 10 µM [17]: -96%
- growth at 100 µM [18]: -47%
- growth at 0.01 µM [19]: 86%
- growth at 10 µM [20]: 19%
- GI50 [21]: 1.62 µM
- LC50 (lethal concentration, 50% net cell kill) [21]: 8.9 µM
- TGI [21]: 3.8 µM
- growth at 0.01 µM [22]: 100%
- growth at 100 µM [23]: -17%
- growth at 0.1 µM [24]: 90%
- growth at 0.01 µM [25]: 92%
- growth at 100 µM [26]: -96%
- GI50 [27]: 2.09 µM
- TGI [27]: 6.25 µM
- CC50 [27]: 24.3 µM
- GI50 [28]: 2.26 µM
- LC50 [28]: 23.4 µM
- TGI [28]: 6.28 µM
- growth at 1 µM [29]: 87%
- growth at 100 µM [30]: -97%
- growth at 0.01 µM [31]: 100%
- growth at 0.01 µM [32]: 101%
- GI50 [33]: 2.99 µM
- LC50 [33]: > 100 µM
- TGI [33]: 12.3 µM
- growth at 0.1 µM [34]: 100%
- growth at 10 µM [35]: 10%
- GI50 [36]: 1.81 µM
- LC50 [36]: 8.36 µM
- TGI [36]: 3.89 µM

Structure (SMILES): COc1cc(-c2cc(/C=C/C(=O)c3ccc(N)cc3)[nH]n2)cc(OC)c1OC
- growth at 1 µM [1]: 66%
- growth at 1 µM [2]: 76%
- growth at 0.01 µM [3]: 107%
- growth at 0.1 µM [4]: 94%
- growth at 100 µM [5]: -57%
- GI50 [6]: 2.48 µM
- TGI [6]: 6.79 µM
- CC50 [6]: 73.2 µM
- growth at 1 µM [7]: 79%
- GI50 [8]: 0.47 µM
- LC50 [8]: > 100 µM
- TGI [8]: 2.77 µM
- GI50 [9]: 2.21 µM
- LC50 [9]: > 100 µM
- TGI [9]: 10.4 µM
- growth at 10 µM [10]: -22%
- growth at 0.01 µM [11]: 92%
- growth at 0.01 µM [12]: 108%
- growth at 0.01 µM [13]: 92%
- growth at 0.1 µM [14]: 102%
- growth at 1 µM [15]: 79%
- growth at 10 µM [16]: -59%
- growth at 10 µM [17]: -96%
- growth at 100 µM [18]: -73%
- growth at 0.01 µM [19]: 100%
- growth at 10 µM [20]: -9%
- GI50 [21]: 2.05 µM
- LC50 (lethal concentration, 50% net cell kill) [21]: > 100 µM
- TGI [21]: 6.37 µM
- growth at 0.01 µM [22]: 93%
- growth at 100 µM [23]: -13%
- growth at 0.1 µM [24]: 85%
- growth at 0.01 µM [25]: 96%
- growth at 100 µM [26]: -86%
- GI50 [27]: 2.23 µM
- TGI [27]: 5.59 µM
- CC50 [27]: 20.9 µM
- GI50 [28]: 1.86 µM
- LC50 [28]: 13.4 µM
- TGI [28]: 4.52 µM
- growth at 1 µM [29]: 79%
- growth at 100 µM [30]: -77%
- growth at 0.01 µM [31]: 96%
- growth at 0.01 µM [32]: 107%
- GI50 [33]: 3.8 µM
- LC50 [33]: > 100 µM
- TGI [33]: 65.8 µM
- growth at 0.1 µM [34]: 110%
- growth at 10 µM [35]: 29%
- GI50 [36]: 1.7 µM
- LC50 [36]: 7.51 µM
- TGI [36]: 3.58 µM

Source: ChEMBL document CHEMBL4138123, “Design, synthesis and biological evaluation of novel pyrazolochalcones as potential modulators of PI3K/Akt/mTOR pathway and inducers of apoptosis in breast cancer cells” (Eur J Med Chem, 2017)
